Test results from patent US20220119354A1, “DIAMINO-SUBSTITUTED PYRIDINES AND PYRIMIDINES AS HERBICIDES” (FMC Corporation, priority 2019, published 2022).

What was measured:
Format in all cases: in vivo
[1] = test system: barnyardgrass (Echinochloa crus-galli); assay: Test A preemergence, barnyardgrass; conditions: 0 to 100 scale
How it was run: (§1)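 Pots of loam–sand mix; preemergence directed soil spray at sowing, postemergence spray at one- to two-leaf stage. Readout: visual injury vs untreated controls, ~10 d, 0–100 scale.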

kochia (Kochia scoparia) [2] = assay: Test A preemergence, kochia; conditions: 0 to 100 scale
How it was run: as §1

[3] = test system: ragweed (common ragweed, Ambrosia elatior); assay: Test A preemergence, ragweed; conditions: 0 to 100 scale
How it was run: as §1

[4] = test system: ryegrass, Italian (Lolium multiflorum); assay: Test A preemergence, Italian ryegrass; conditions: 0 to 100 scale
How it was run: as §1

[5] = test system: foxtail, green (Setaria viridis); assay: Test A preemergence, green foxtail; conditions: 0 to 100 scale
Excerpt: (§2) Seeds of plant species selected from barnyardgrass (Echinochloa crus-galli), kochia (Kochia scoparia), ragweed (common ragweed, Ambrosia elatior), ryegrass, Italian (Lolium multiflorum), foxtail, giant (Setaria faberii), foxtail, green (Setaria viridis), and pigweed (Amaranthus retroflexus) were planted into a blend of loam soil and sand and treated preemergence with a directed soil spray using test chemicals formulated in a non-phytotoxic solvent mixture which included a surfactant.
(§3) At the same time, plants selected from these weed species and also wheat (Triticum aestivum), corn (Zea mays), blackgrass (Alopecurus myosuroides), and galium (catchweed bedstraw, Galium aparine) were planted in pots containing the same blend of loam soil and sand and treated with postemergence applications of test chemicals formulated in the same manner. Plants ranged in height from 2 to 10 cm and were in the one- to two-leaf stage for the postemergence treatment. Treated plants and untreated controls were maintained in a greenhouse for approximately 10 d, after which time all treated plants were compared to untreated controls and visually evaluated for injury. Plant response ratings, summarized in Table A, are based on a 0 to 100 scale where 0 is no effect and 100 is complete control. A dash (-) response means no test result.

[6] = test system: pigweed (Amaranthus retroflexus); assay: Test A preemergence, pigweed; conditions: 0 to 100 scale
How it was run: as §1

[7] = test system: barnyardgrass (Echinochloa crus-galli); assay: Test A postemergence, barnyardgrass; conditions: 0 to 100 scale
How it was run: as §1

kochia (Kochia scoparia) [8] = assay: Test A postemergence, kochia; conditions: 0 to 100 scale
How it was run: as §1

[9] = test system: ragweed (common ragweed, Ambrosia elatior); assay: Test A postemergence, ragweed; conditions: 0 to 100 scale
How it was run: as §1

[10] = test system: ryegrass, Italian (Lolium multiflorum); assay: Test A postemergence, Italian ryegrass; conditions: 0 to 100 scale
How it was run: as §1

[11] = test system: foxtail, green (Setaria viridis); assay: Test A postemergence, green foxtail; conditions: 0 to 100 scale
Excerpt: as §2, §3

[12] = test system: pigweed (Amaranthus retroflexus); assay: Test A postemergence, pigweed; conditions: 0 to 100 scale
How it was run: as §1

[13] = test system: wheat (Triticum aestivum); assay: Test A postemergence, wheat; conditions: 0 to 100 scale
How it was run: as §1

corn (Zea mays) = assay: Test A postemergence, corn; conditions: 0 to 100 scale
How it was run: as §1

[14] = test system: blackgrass (Alopecurus myosuroides); assay: Test A postemergence, blackgrass; conditions: 0 to 100 scale
How it was run: as §1

[15] = test system: galium (catchweed bedstraw, Galium aparine); assay: Test A postemergence, galium; conditions: 0 to 100 scale
How it was run: as §1

rice (Oryza sativa) = assay: Test B flooded paddy test, rice; conditions: Flood, 250 g ai/ha, applied to paddy water, 2-leaf stage, visual evaluation after 13 to 15 d
How it was run: (§4)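 Plants grown to 2-leaf stage. Compounds applied directly into paddy water flooded 3 cm above soil, with that depth kept throughout. After 13–15 d in greenhouse, visual rating versus controls on a 0–100 scale (0 no effect, 100 complete control).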

[16] = test system: sedge, umbrella (small-flower umbrella sedge, Cyperus difformis); assay: Test B flooded paddy test, umbrella sedge; conditions: Flood, 250 g ai/ha, applied to paddy water, 2-leaf stage, visual evaluation after 13 to 15 d
How it was run: as §4

[17] = test system: ducksalad (Heteranthera limosa); assay: Test B flooded paddy test, ducksalad; conditions: Flood, 250 g ai/ha, applied to paddy water, 2-leaf stage, visual evaluation after 13 to 15 d
How it was run: as §4

[18] = test system: barnyardgrass (Echinochloa crus-galli); assay: Test B flooded paddy test, barnyardgrass; conditions: Flood, 250 g ai/ha, applied to paddy water, 2-leaf stage, visual evaluation after 13 to 15 d
How it was run: as §4

CC(CCc1ccccc1)Nc1ncc(C(F)(F)F)c(N)n1 (stereo not drawn) [Compound 23]
0: Plant response rating, Barnyardgrass ([1]; 125 g ai/ha) | Plant response rating, Barnyardgrass ([1]; 500 g ai/ha) | Plant response rating, Kochia (kochia (Kochia scoparia) [2]; 125 g ai/ha) | Plant response rating, Kochia (kochia (Kochia scoparia) [2]; 500 g ai/ha) | Plant response rating, Ragweed ([3]; 125 g ai/ha) | Plant response rating, Ragweed ([3]; 500 g ai/ha) | Plant response rating, Ryegrass, Italian ([4]; 125 g ai/ha) | Plant response rating, Ryegrass, Italian ([4]; 500 g ai/ha) | Plant response rating, Foxtail, Green ([5]; 125 g ai/ha) | Plant response rating, Foxtail, Green ([5]; 500 g ai/ha) | Plant response rating, Pigweed ([6]; 125 g ai/ha) | Plant response rating, Barnyardgrass ([7]; 125 g ai/ha) | Plant response rating, Barnyardgrass ([7]; 500 g ai/ha) | Plant response rating, Kochia (kochia (Kochia scoparia) [8]; 125 g ai/ha) | Plant response rating, Kochia (kochia (Kochia scoparia) [8]; 500 g ai/ha) | Plant response rating, Ragweed ([9]; 125 g ai/ha) | Plant response rating, Ragweed ([9]; 500 g ai/ha) | Plant response rating, Ryegrass, Italian ([10]; 125 g ai/ha) | Plant response rating, Ryegrass, Italian ([10]; 500 g ai/ha) | Plant response rating, Foxtail, Green ([11]; 125 g ai/ha) | Plant response rating, Foxtail, Green ([11]; 500 g ai/ha) | Plant response rating, Pigweed ([12]; 125 g ai/ha) | Plant response rating, Pigweed ([12]; 500 g ai/ha) | Plant response rating, Wheat ([13]; 125 g ai/ha) | Plant response rating, Wheat ([13]; 500 g ai/ha) | Plant response rating, Corn (corn (Zea mays); 125 g ai/ha) | Plant response rating, Corn (corn (Zea mays); 500 g ai/ha) | Plant response rating, Blackgrass ([14]; 125 g ai/ha) | Plant response rating, Blackgrass ([14]; 500 g ai/ha) | Plant response rating, Galium ([15]; 125 g ai/ha) | Plant response rating, Galium ([15]; 500 g ai/ha) | Plant response rating, Rice (0 to 100 scale, 0 is no effect, 100 is complete control) (rice (Oryza sativa)) | Plant response rating, Sedge, Umbrella (0 to 100 scale, 0 is no effect, 100 is complete control) [16] | Plant response rating, Ducksalad (0 to 100 scale, 0 is no effect, 100 is complete control) [17] | Plant response rating, Barnyardgrass (0 to 100 scale, 0 is no effect, 100 is complete control) [18]
50: Plant response rating, Pigweed ([6]; 500 g ai/ha)
